Molecular target: T1, Nb-9-LOX (Nicotiana benthamiana, UniProt R4S2V6)
T1 construct: protein starts MSLEKI, ends NSVSI (from primers)
T1 sequence (R4S2V6 1-862): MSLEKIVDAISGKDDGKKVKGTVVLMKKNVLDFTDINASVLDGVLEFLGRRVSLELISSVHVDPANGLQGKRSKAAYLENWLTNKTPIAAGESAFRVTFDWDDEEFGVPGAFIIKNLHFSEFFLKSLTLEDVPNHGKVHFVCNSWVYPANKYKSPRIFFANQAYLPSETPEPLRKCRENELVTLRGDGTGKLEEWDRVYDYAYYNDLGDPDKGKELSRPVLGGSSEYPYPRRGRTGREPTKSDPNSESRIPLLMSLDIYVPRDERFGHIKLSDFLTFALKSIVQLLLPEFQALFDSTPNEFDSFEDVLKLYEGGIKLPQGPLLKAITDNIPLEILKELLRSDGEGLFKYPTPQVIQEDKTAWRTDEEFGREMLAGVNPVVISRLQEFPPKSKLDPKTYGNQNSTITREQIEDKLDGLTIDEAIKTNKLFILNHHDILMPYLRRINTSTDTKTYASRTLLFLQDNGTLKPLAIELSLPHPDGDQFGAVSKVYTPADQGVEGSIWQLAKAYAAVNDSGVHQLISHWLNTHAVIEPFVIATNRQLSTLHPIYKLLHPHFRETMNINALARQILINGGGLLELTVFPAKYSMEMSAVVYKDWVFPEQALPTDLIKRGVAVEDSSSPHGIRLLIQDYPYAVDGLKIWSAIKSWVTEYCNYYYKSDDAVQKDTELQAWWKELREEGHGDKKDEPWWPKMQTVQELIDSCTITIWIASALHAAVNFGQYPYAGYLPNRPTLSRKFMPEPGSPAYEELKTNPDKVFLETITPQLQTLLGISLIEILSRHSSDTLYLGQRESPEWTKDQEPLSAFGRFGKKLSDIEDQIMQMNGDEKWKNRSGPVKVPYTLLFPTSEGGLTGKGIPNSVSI
Test: spectrophotometry at […] nm, conjugated diene formation, crude yeast extract
Assay type: biochemical
Conditions: 50 mM sodium phosphate; pH 6.0 presumed for the Km (used after the optimum was found); room temperature; O2

For CCCCC/C=C\C/C=C\CCCCCCCC(=O)O [linoleic acid], the Km was 3.9 µM.

— article PMC3079629, “Cloning and characterization of a 9-lipoxygenase gene induced by pathogen attack from Nicotiana benthamiana for biotechnological application” (BMC Biotechnology, 2011)
